In US9388140B2, “Substituted benzimidazoles” (priority 2011, dated 2016):

Target: human kinase Mps-1 (Homo sapiens (Human), UniProt P33981)
Experiment: Mps-1 kinase assay (TR-FRET)
Type: biochemical
Settings: N-terminally GST-tagged human full length recombinant Mps-1; 10 μM ATP; 1 μM biotinylated peptide substrate; read-out: Mps1 IC50
Outline: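 Read-out: TR-FRET from Europium-labelled anti-phospho(Ser/Thr) antibody to SA-XLent after 1 h detection incubation at 22° C. Inhibition of kinase activity measured.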

human kinase Mps-1, sequence (P33981 whole entry): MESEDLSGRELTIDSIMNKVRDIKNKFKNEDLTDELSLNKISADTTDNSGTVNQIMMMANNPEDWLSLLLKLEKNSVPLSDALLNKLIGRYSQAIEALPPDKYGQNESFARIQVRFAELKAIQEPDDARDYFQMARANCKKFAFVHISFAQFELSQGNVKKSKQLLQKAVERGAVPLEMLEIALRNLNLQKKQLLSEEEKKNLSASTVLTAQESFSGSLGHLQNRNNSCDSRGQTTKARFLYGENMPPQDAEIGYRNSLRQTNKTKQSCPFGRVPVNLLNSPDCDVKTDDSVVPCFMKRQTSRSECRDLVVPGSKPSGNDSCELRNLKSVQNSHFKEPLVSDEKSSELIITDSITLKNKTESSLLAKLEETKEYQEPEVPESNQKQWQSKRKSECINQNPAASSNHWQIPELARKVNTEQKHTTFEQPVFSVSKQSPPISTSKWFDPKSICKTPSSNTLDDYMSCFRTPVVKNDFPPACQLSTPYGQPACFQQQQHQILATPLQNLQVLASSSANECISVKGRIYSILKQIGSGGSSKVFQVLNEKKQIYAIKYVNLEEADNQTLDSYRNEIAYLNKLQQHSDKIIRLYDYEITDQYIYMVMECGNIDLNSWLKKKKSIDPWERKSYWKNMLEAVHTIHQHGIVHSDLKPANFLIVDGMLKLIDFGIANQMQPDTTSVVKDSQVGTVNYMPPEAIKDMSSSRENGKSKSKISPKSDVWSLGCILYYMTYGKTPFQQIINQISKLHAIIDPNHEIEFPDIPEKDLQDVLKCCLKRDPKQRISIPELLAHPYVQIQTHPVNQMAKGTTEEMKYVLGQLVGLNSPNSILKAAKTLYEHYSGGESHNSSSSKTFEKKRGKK

Row | SMILES | IC50 [nM]
1 | CNC(=O)c1ccc(-n2cnc3c(NCC4CCOCC4)cc(Oc4ccc(O)c(F)c4)cc32)cc1C [Example 112, 4-{6-(3-fluoro-4-hydroxyphenoxy)-4-[(tetrahydro-2H-pyran-4-ylmethyl)amino]-1H-benzimidazol-1-yl}-N,2-dimethylbenzamid] | 3.6
2 | CCNC(=O)c1ccc(-n2cnc3c(NCC4CCOCC4)cc(Oc4ccc(O)c(F)c4)cc32)cc1C [Example 113A, N-ethyl-4-{6-(3-fluoro-4-hydroxyphenoxy)-4-[(tetrahydro-2H-pyran-4-ylmethyl)amino]-1H-benzimidazol-1-yl}-2-methylbenzamide] | 6.3
3 | CCNC(=O)c1ccc(-n2cnc3c(NCC4CCOCC4)cc(Oc4ccc(OC)c(SC)c4)cc32)cc1C [Example 113B, N-ethyl-4-{6-[4-methoxy-3-(methylsulfanyl)phenoxy]-4-[(tetrahydro-2H-pyran-4-ylmethyl)amino]-1H-benzimidazol-1-yl}-2-methylbenzamide] | 54
4 | Cc1cc(-n2cnc3c(NCC4CCOCC4)cc(Oc4ccc(O)c(F)c4)cc32)ccc1C(=O)NC1CC1 [Example 114A, N-cyclopropyl-4-{6-(3-fluoro-4-hydroxyphenoxy)-4-[(tetrahydro-2H-pyran-4-ylmethyl)amino]-1H-benzimidazol-1-yl}-2-methylbenzamide] | 0.7
5 | COc1ccc(Oc2cc(NCC3CCOCC3)c3ncn(-c4ccc(C(=O)NC5CC5)c(C)c4)c3c2)cc1SC [Example 114B, N-cyclopropyl-4-{6-[4-methoxy-3-(methylsulfanyl)phenoxy]-4-[(tetrahydro-2H-pyran-4-ylmethyl)amino]-1H-benzimidazol-1-yl}-2-methylbenzamide] | 6.7
6 | CNC(=O)c1ccc(-n2cnc3c(NCC4CCOCC4)cc(Oc4ccc(O)cc4F)cc32)cc1C [Example 115A, 4-{6-(2-fluoro-4-hydroxyphenoxy)-4-[(tetrahydro-2H-pyran-4-ylmethyl)amino]-1H-benzimidazol-1-yl}-N,2-dimethylbenzamide] | 7.3
7 | CNC(=O)c1ccc(-n2cnc3c(NCC4CCOCC4)cc(Oc4ccc(OC)cc4SC)cc32)cc1C [Example 115B, 4-{6-[4-methoxy-2-(methylsulfanyl)phenoxy]-4-[(tetrahydro-2H-pyran-4-ylmethyl)amino]-1H-benzimidazol-1-yl}-N,2-dimethylbenzamide] | 28.9
8 | Cc1cc(-n2cnc3c(NCC4CCOCC4)cc(Oc4ccc(O)cc4F)cc32)ccc1C(=O)NC1CC1 [Example 116A, N-cyclopropyl-4-{6-(2-fluoro-4-hydroxyphenoxy)-4-[(tetrahydro-2H-pyran-4-ylmethyl)amino]-1H-benzimidazol-1-yl}-2-methylbenzamide] | 1
9 | COc1ccc(Oc2cc(NCC3CCOCC3)c3ncn(-c4ccc(C(=O)NC5CC5)c(C)c4)c3c2)c(SC)c1 [Example 116B, N-cyclopropyl-4-{6-[4-methoxy-2-(methylsulfanyl)phenoxy]-4-[(tetrahydro-2H-pyran-4-ylmethyl)amino]-1H-benzimidazol-1-yl}-2-methylbenzamide] | 2.9
10 | CCNC(=O)c1ccc(-n2cnc3c(NCC4CCOCC4)cc(Oc4ccc(O)cc4F)cc32)cc1C [Example 117A, N-ethyl-4-{6-(2-fluoro-4-hydroxyphenoxy)-4-[(tetrahydro-2H-pyran-4-ylmethyl)amino]-1H-benzimidazol-1-yl}-2-methylbenzamide] | 6.7
11 | CCNC(=O)c1ccc(-n2cnc3c(NCC4CCOCC4)cc(Oc4ccc(OC)cc4SC)cc32)cc1C [Example 117B, N-ethyl-4-[6-{4-methoxy-2-(methylsulfanyl)phenoxy]-4-[(tetrahydro-2H-pyran-4-ylmethyl)amino]-1H-benzimidazol-1-yl}-2-methylbenzamide] | 25.8
